Peptide text beside a SMILES is read from it. * marks the point of attachment. Cbz = O=C(OCc1ccccc1)* Some results are limits rather than exact numbers.

What is called IC50 is the midpoint of a concentration-inhibition curve. Usually CC50 stands for the concentration at which the toxic effect on the cells reaches its halfway point. Lower therefore signals harm at low concentration. By EC50 is commonly meant the concentration needed to bring the measured effect to its halfway point.

Data set [1] concerns NL4-3 strain. The data set can be described thus: HIV-1 NL4-3 infection of HeLa-CD4-LTR-LacZ reporter cells, LacZ measured 72 h later. It is filed as cell-based. The settings on record: Human immunodeficiency virus 1, NL43; HeLa-CD4-LTR-LacZ cells infected with NL4-3, LacZ at 72 h; mean ± SD, n = 2 to 3; read-out: IC50. An excerpt:
To understand the structure-function relationship of the dCA molecule with respect to our structural model, we synthesized and characterized the ability of 11 analogs of dCA to inhibit HIV infection (Table 2). […] We used HeLa-CD4 cells stably expressing the HIV-1 5′ LTR driving β-galactosidase production (HeLa-CD4-LTR-LacZ cells) as a reporter for the infection with isolate NL4-3. Table 2 summarizes the IC50, 50% cytotoxic concentration (CC50), and therapeutic index (TI) for each compound. The loss of dCA activity was directly associated with the positioning and the chemical environment of the azote on the F ring and the presence of oxygen in ring B. Moreover, the E-F “skeleton angle” and the distance between the A-B-C-D and F rings affected the activity by more than 50-fold (analogs 7 and 10).
The activity of Tat in HeLa-CD4-LTR-Luc and OM10.1 cells was verified by a transactivation assay as described in reference. In HeLa-CD4-LTR-LacZ cells, the assay was performed as described in reference. A detailed protocol is provided in Text S1.
Transactivation assay. In HeLa-CD4-LTR-Luc cells and OM10.1 cells. The activity of Tat was verified by a transactivation assay as previously reported (13). Briefly, HeLa-CD4-LTR-Luc cells and OM10.1 were plated at 1×10^5 and 8x10^5 cells per well of a 6-well plate respectively. The following day, recombinant Tat protein was added to the cells in culture media without serum and in the presence of 100 μM of Chloroquine. Five hours later, serum was added at 5 % to the culture media. Cells were lysed 24 hrs later, protein concentration determined by Bradford assay and luciferase activity was measured for HeLa-CD4-LTR-Luc cells. Results corresponding to luciferase activity per protein concentration of each sample are shown as relative light unit (RLU). As for the OM10.1 cells, RNA was extracted using the RNA extraction kit (Qiagen) and DNA contamination was removed using Turbo-DNAse kit (Ambion). First-strand cDNA was synthesized using SuperscriptIII^TM first-strand cDNA kit (Invitrogen) and random hexamers as first-strand primers. qRT-PCR was performed with an aliquot of cDNA as template, using LightCycler? 480 SYBR Green I Master in a 20 µL reaction according to the manufacturer’s instructions. The mRNAs from each sample were used as negative control. Primer sequences for GAPDH (13) and all viral mRNAs as previously described (59). In HeLa-CD4-LTR-LacZ cells. It was performed as previously described (10). Briefly, cells were plated at 1×10^4 cells per well of a 96-well plate. Twenty-four hrs later HIV-1 NL4-3 strain was added in the presence of testing compound or DMSO. Seventy-two hrs post infection, cells were disrupted in lysis buffer (60 mM Na2HPO4, 40 mM NaH2PO4, 10 mM KCl, 10 mM MgSO4, 2.5 mM EDTA, 50 mM ß-mercaptoethanol, 0.125 % Nonidet P-40) and a quantitative chlorophenol red-ß-D-galactopyranoside (CPRG)-based (Boehringer Mannheim) assay was performed. The cell extracts were incubated in a reaction buffer (0.9 M phosphate buffer [pH 7.4], 9 mM MgCl2, 11 mM ß-mercaptoethanol, 7 mM CPRG) until a red color developed and measured with an LP400 (Becton Dickinson) plate reader at 572 nm.

Data set [2] can be described thus: MTT viability assay, 72 h. The settings on record: human, HeLa-CD4-LTR-LacZ cells, mean ± SD, n = 2 to 3. It is filed as cell-based. The method, then:
The assay was performed with MTT [3-(4,5-dimethyl-2-thiazolyl)-2,5-diphenyl-2H-tetrazolium bromide] as described in reference.

Data set [3] concerns human umbilical vein endothelial cells (HUVECs). Also on record: method as in PMID 16522087, PMID 17765550, PMID 26416749. The settings on record: read-out: EC50, antiproliferative; cited from earlier work.
Data set [4] deals with CA-sensitive AML cell lines. Also noted: method as in PMID 16522087, PMID 17765550, PMID 26416749. The settings on record: read-out: IC50, antileukemic activity; cited from earlier work.
In data set [5] the target is T1, intracellular Tat (Human immunodeficiency virus type 1 group M subtype B, UniProt P69697).
T1 construct: pTatC6H-1 (NIH AIDS Reagent Program) plasmid encoding C-terminal 6xHistidine Tat1-86 (HXB3, subtype B); made in house; host or cells: E. coli BL21 (plasmid pTatC6H-1, NIH AIDS Reagent Program)
The data set can be described thus: Steady state of recombinant Tat in HeLa-CD4-LTR-Luc cells (Western blot). The format is cell-based, HIV-1. The settings on record: 6 hours with compound, MG132 10 μM. The method, then: FIG 5 dCA stabilizes Tat structure. (A) Trp fluorescence assays. (Left) Schematic of the assay. (Center) DMSO, dCA (7.5× Tat concentration) or raltegravir (Ralt.; 7.5× Tat concentration) was incubated with Tat. The fluorescence of the Trp^11 of Tat protein was measured at the indicated wavelengths. Acrylamide (250 mM) was used as a quenching control of Tat fluorescence. (Right) Peak absorbance (λmax) versus increasing fold ratios of compounds to Tat protein. Data are representative of n = 3 independent experiments. (B) DARTS assays. Tat was incubated with DMSO or dCA, at increasing concentrations, in the presence of increasing concentrations of proteinase K (PK). […] Data are representative of n = 2 independent experiments. (C) Steady state of Tat in the presence of dCA in vivo. HeLa-CD4-LTR-Luc cells were incubated with recombinant Tat and then washed and incubated with the indicated compounds for 6 hours. […] (Left) Western blot representative of n = 4 independent experiments. MG132 was used as a positive control of Tat protection from degradation, and raltegravir was used as a negative control. (Right) Densitometry of the Tat band normalized to the actin band. Results represent the mean ± SEM from n = 4 independent experiments. Statistical significance was determined using one-way ANOVA with post hoc Tukey’s test. ns, not significant; ***, P < 0.0001; **, P < 0.001.
Next, we determined the half-life of recombinant Tat in HeLa-CD4-LTR-Luc cells in the presence of dCA (Fig. 5C). We incubated recombinant Tat with cells for 4 hours, and after several washes to remove extracellular Tat protein, we incubated cells with DMSO, dCA, or raltegravir for an additional 6 hours. Western blotting with anti-His antibody was performed to reveal intracellular Tat. […]
Half-life of Tat in vivo. […] Total protein concentration was assessed by Bradford assay and Tat protein in each condition determined by western blot with an anti-His antibody at 1:1500 dilution (Thermofisher). […]
(In general: A western blot detects proteins with antibodies after separation by electrophoresis.)

Data set [6] deals with T2, Pep B-TAR interaction (Human immunodeficiency virus type 1 group M subtype B, UniProt P20879).
T2 construct: Pep B is a peptide encompassing the basic domain of HIV Tat (^45ISYGRKKRRQRRRAP^59)
Put plainly: EMSA of Tat's basic peptide (Pep B) with TAR. It is filed as biochemical, HIV-1. The settings on record: Tat basic peptide residues 45 to 59. The text has this:
FIG 6 dCA binding to Tat disrupts Tat-TAR interaction. (A) EMSA of full-length Tat with TAR in the presence of dCA. Raltegravir (Ralt.) and deleted bulge TAR (ΔTAR) were used as negative controls. Data are representative of n = 3 independent experiments. (B) EMSA of Tat’s basic domain with TAR in the presence of increasing concentrations of dCA to Tat’s basic peptide. Pep B is a peptide encompassing the basic domain of HIV Tat (^45ISYGRKKRRQRRRAP^59). Pep C (^69LSKQPASQPRGDPTG^83) and unlabeled or cold TAR (TARc) were used as negative controls. Neomycin, which binds to Tat and TAR, was used as a positive control. Ratios of compounds (or TARc) concentrations to peptide are shown. Data are representative of n = 3 independent experiments. […] Shown are ITC results from binding of dCA (left) or Tat peptide (right) to TAR at 25°C. […] For the lower plots, results were converted to molar heats and plotted against the molar ratio of dCA or peptide to RNA. Data are representative of n = 2 independent experiments. (D) Tat-TAR interaction blocked by dCA in HeLa-CD4-LTR-Luc cells in vivo. Cells transfected with Tat or Tat Mut (arginine residues mutated to alanine in Tat’s basic domain) were incubated with DMSO or the indicated compounds (25 nM). Forty-eight hours later, cells were either lysed to determine the luciferase activity or cross-linked for ChIP assays. Luciferase activity was determined relative to protein concentration (Bradford assay) (Fig. S9A). Western blotting was performed to verify the amount of Tat under each condition (Fig. S9B). ChIP of Tat was followed by qRT-PCR of TAR DNA. The results are presented as percentage of input. The mean ± SEM is represented. Data are representative of n = 3 independent experiments. Statistical significance was determined using one-way ANOVA with post hoc Tukey’s test with 3 technical replicates. ns, not significant; ***, P < 0.0001.
We also performed the same experiment with a peptide encompassing the basic domain of Tat (Pep B; residues 45 to 59) and dCA.
EMSA With full-length Tat: similar protocol was performed as in Das et al. (60). […]
For orientation: Mobility shift assays separate free from complexed probe on a gel.

T1 sequence (P69697 whole entry): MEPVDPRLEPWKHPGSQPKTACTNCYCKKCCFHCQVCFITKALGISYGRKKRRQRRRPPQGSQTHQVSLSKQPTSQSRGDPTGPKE

For `CC(=O)N(C)C1CC23CCC4(O2)C(=CCC2(C)C(c5ccc6ccncc6c5)=CCC24)C=C3C(O)C1O` (centres unmarked) [# 3], in data set [1], the IC50 is 0.037 ± 0.0058 µM. The same molecule came in with a half-maximal cytotoxic concentration (CC50) at 72 h in data set [2] of 5.6 µM.

As for `CC12CC=C3C=C4C(O)C(O)C(N)CC45CCC3(O5)C1CC=C2c1ccc2ccncc2c1` (centres unmarked) [# 4], the IC50 in data set [1] was 0.004 ± 0.0005 µM. Besides, the CC50 at 72 h in data set [2] is 23.1 ± 0.3 µM.

For the molecule `CN(C)C1CC23CCC4(O2)C(=CCC2(C)C(c5ccc6cnncc6c5)=CCC24)C=C3C(O)C1O` (centres unmarked) [# 5], the 50% inhibitory concentration (IC50) in data set [1] is 0.141 µM. For the same molecule, in data set [2], the 50% cytotoxic concentration (CC50) at 72 h stood at 16.4 µM.

Consider `Cc1n[nH]c2cc(C3=CCC4C3(C)CC=C3C=C5C(O)C(O)C(N(C)C)CC56CCC34O6)ccc12` (centres unmarked) [# 6], for which the half-inhibitory concentration (IC50) in data set [1] was determined as 0.0675 ± 0.0068 µM. It took 12.1 ± 0.8 µM to reach half-maximal cytotoxicity in data set [2] (CC50 at 72 h).

In the case of `CN(C)C1CC23CCC4(O2)C(=CCC2(C)C(c5ccc6ccncc6c5)C(=O)CC42)C=C3C(O)C1O` (centres unmarked) [# 9], in data set [1], the half-inhibitory concentration (IC50) was found to be 0.0005 ± 0.0001 µM. Besides, the CC50 at 72 h in data set [2] was > 50 µM.

As for `CN(C)[C@H]1C[C@@]23CC[C@@]4(O2)C(=CC[C@]2(C)[C@@H](c5ccc6ccncc6c5)CC[C@H]24)C=C3[C@@H](O)[C@@H]1O` [CA, cortistatin A], the EC50 in data set [3] is 0.35 µM. In data set [4], the concentration for half-maximal inhibition (IC50) was ~0.01 µM.

Regarding `CC(C)C[C@@H](C=O)NC(=O)[C@H](CC(C)C)NC(=O)[C@H](CC(C)C)NC(=O)OCc1ccccc1` [MG132] (Cbz-Leu-Leu-Leu-aldehyde), the “percentage of remaining Tat” value in data set [5] is listed as 40%.

With neomycin, the “inhibition of Pep B-TAR interaction (EMSA)” value in data set [6] is “inhibited the interaction of Pep B with TAR”.

The values are drawn from article PMC6368365, “Didehydro-Cortistatin A Inhibits HIV-1 by Specifically Binding to the Unstructured Basic Region of Tat” (mBio, 2019).
